Data as given in patent publication US9630964B2, “Fluoro-9-methyl-β-carbolines” (priority 2013, dated 2017).
Converted amounts (≈) assume the structure as drawn.

Assays:
[1] = guinea pig, in vivo
Method: For better evaluation of half times of 9-methyl-β-carboline (9MβC), 6-fluoro-9-methyl-β-carboline (6F9MβC) and 7-fluoro-9-methyl-β-carboline (7F9MβC) in animal organism and more precisely in perilymph (the notified site of action), experiments with guinea pigs were conducted. Therefore, the respective active agent (in total 1.4 mg active agent per ear), packed in 40 μl of a hydrogel (18% Poloxamer 407 and 0.6% alginate), was administered at once in front of the membrane of the round window of narcotized guinea pigs. […] After expiry of the desired time (20 min, 2 h, 8 h or 24 h), each time 5 μL perilymph were removed under anesthesia from the top of the cochlea (apex). Subsequently, the animal was killed. Per each time (20 min, 2 h, 8 h or 24 h) measured values were taken of at least ears and averaged.
The concentration of the corresponding active agent in perilymph samples was determined by high-performance liquid chromatography (HPLC, partly also named as high-pressure liquid chromatography) and measurement of auto fluorescence of the respective active agent. For HPLC the eluent consisted to 45% of 90% acetonitrile and to 55% of ammonium acetate (40 mM, pH<5). The flow rate was 0.4 mL/min and injection volume was 10 μL. Each sample was diluted with 60% methanol, if the signal was too strong. After each run the injection needle was washed with 100% isopropanol. The detection limit was 20 fmol/L.
From the determined active agent concentrations the elimination half times were then calculated.

[2] = system: Lif (Leukemia inhibitory factor); assay: Quantitative RT-PCR, relative gene expression of Lif in SH-SY5Y cells; type: cell-based, human; conditions: 30 μM each
Method: (§1) SH-SY5Y cell lines, which were provided by the institute of human genetics of university hospital Eppendorf and which they in turn received from Braunschweig resource center, were used again for the RT-PCR experiments (reverse transcriptase polymerase chain reaction) carried out for this purpose.
(§2) The cells were incubated in MEM (Minimum essential medium, Life Technologies) with 10% FCS (fetal calf serum, Biochrom AG) and penicillin/streptomycin (Biochrom AG). The cells were seeded with a density of 1×10^5 cells/cm^2 in 25 cm^2 cell culture bottles (Falcon, cell culture treated) with 5 mL medium. Stock solutions of 10 mmol/L of compounds 9-methyl-β-carboline (AC-002 or 9MβC) and 6-fluoro-9-methyl-β-carboline (AC-102 or 6F9MβC), respectively were prepared in distillated water and sterile filtered. One day after the cell seeding the compounds were added in corresponding amounts (5-55 μL) to reach final concentration in the medium of 10 μM, 20 μM and 30 μM for 6F9MβC and 30 μM, 50 μM and 70 μM for 9MβC. The references received only the corresponding amount of solvent (distilled water). The medium was changed once a week.
(§3) The cells were regularly microscopically examined and harvest after 2, 7 and 14 days of incubation time, washed with PBS and immediately frozen at −80° C.
(§4) The RNA-isolation was done with the HighPure RNA Isolation kit of the company Roche. This isolation includes a DNaseI digestion. The concentration of RNA was measured with nanoDrop spectrometer and the RNA integrity was determined with the aid of the Bioanalyzer 2100 (Agilent). By using random hexamer primers, protector RNA inhibitor (Roche) and transcriptor reverse transcriptase (fermentas), 300 ng RNA were transcribed into cDNA per each sample.
(§5) After the reaction, this run was diluted 1:4 and thereof 2 μL per each quantitative RT-PCR were used. This was performed in a LightCycler 480 under standard conditions in the SybrGreen format with annealing temperatures determined for each primer individually. If possible, exon spanning primers were used.
(§6) The specificity was verified by melting curve analysis and subsequent gel electrophoresis. For each PCR the PCR efficiency and the Cq value was determined by the program LinRegPCR and these were used in further calculations. B2M (β2-microglobulin) was identified from multiple reference genes to be suitable for examination conditions. All results are results relative to the corresponding reference conditions, at which only solvent was administered for the specified period of time (i.e. 2 days, 7 days or 14 days). In FIGS. 5A to 5I are also relative gene expressions (relative to reference conditions) presented. Here, the 2-day exposition is presented in light grey, the 7-day exposition in dark grey and the 14-day exposition in black. Every measured value from FIGS. 5A-5I represents a mean value of 3 independent biologic samples.
(§7) Analogous to example 4 RT-PCR experiments with the inventive active agent 7-fluoro-9-methyl-β-carboline (7F9MβC) were also performed for some important cellular factors. The experimental procedure was here identical to the experiments with 6-fluoro-9-methyl-β-carboline and 9-methyl-β-carboline. Here the same (like for 6F9MβC) final concentrations of 30 μM, 50 μM and 70 μM 7F9MβC for the culture medium were employed. The examined factors were BDNF (brain-derived neurotrophic factor), Lif (Leukemia inhibitory factor), DRD2S (short variant of dopamine receptor subtype 2) as well as DKK1 (Dickkopf-related protein 1). The same primers, that were already listed for the respective target genes in example 4 (Tab. 1) were used. As already noted, especially BDNF and Lif belongs to the most important factors for cellurar repair processes after traumas in the inner ear.

[3] = system: DRD2S (short variant of dopamine receptor subtype 2); assay: Quantitative RT-PCR, relative gene expression of DRD2S in SH-SY5Y cells; type: cell-based, human; conditions: 30 μM each
Method: as §1, §2, §3, §4, §5, §6, §7

[4] = system: DKK1 (Dickkopf-related protein 1); assay: Quantitative RT-PCR, relative gene expression of DKK1 in SH-SY5Y cells; type: cell-based, human; conditions: 30 μM each
Method: as §1, §2, §3, §4, §5, §6
as §7, with “The same primers, that were already listed for the respective target genes in example 4 (Tab. 1) were used. As already noted, especially BDNF and Lif belongs to the most important factors for cellurar repair processes after traumas in the inner ear.” left out

[5] = system: BDNF (brain-derived neurotrophic factor); assay: Quantitative RT-PCR, relative gene expression of BDNF in SH-SY5Y cells; type: cell-based, human; conditions: 30 μM each
Method: as §1, §2, §3
The RNA-isolation was done with the HighPure RNA Isolation kit of the company Roche. […] The concentration of RNA was measured with nanoDrop spectrometer and the RNA integrity was determined with the aid of the Bioanalyzer 2100 (Agilent). […]
After the reaction, this run was diluted 1:4 and thereof 2 μL per each quantitative RT-PCR were used. This was performed in a LightCycler 480 under standard conditions in the SybrGreen format with annealing temperatures determined for each primer individually. […]
The specificity was verified by melting curve analysis and subsequent gel electrophoresis. For each PCR the PCR efficiency and the Cq value was determined by the program LinRegPCR and these were used in further calculations. […] Every measured value from FIGS. 5A-5I represents a mean value of 3 independent biologic samples. […]

physchem = conditions: water
Method: Furthermore, the solubility of both compounds in water was determined by preparing concentration series of both compounds in water at room temperature. The concentration at which the compound was barely soluble was determined by external calibration. The corresponding concentration was quantified by HPLC.

[6] = system: outer hair cells (OHC) in the inner ear; assay: Immunohistochemical experiments: dying of outer hair cells after acoustic trauma; type: in vivo; conditions: guinea pig, intratympanic, total 0.2 mg per ear, day 14
Method: (§8) To induce an acoustic trauma, guinea pigs were anesthetized with 60 mg/kg ketamine and 8 mg/kg xylazine. Then Bepanten ointment (Bayer) was administered to the eyes and the animal was put in a soundproof chamber. A calibrated speaker was placed directly above the head of the animal, wherein it was set to emit a half octave band, centered around 8 kHz, with a volume of 110 dB for duration of 30 minutes.
The thermosensitive, liquid mixture was administered under view by a Hamilton syringe directly in front of the round window membrane of the middle ear (10 μL). The first dose 6-fluoro-9-methyl-β-carboline (e.g. 0.07 mg) was administered one hour after the acoustic trauma in a concentration of 0.007 mg/μL and the second dose 6-fluoro-9-methyl-β-carboline (0.035 mg in a volume of 5 μL) on day 3. Here, only one ear per animal was treated, while the second ear served as intra-individual control. The control here is particularly abbreviated to “contr.”. In comparative experiments it was found, that administration of just an active agent vehicle (hydrogel) has no effect in comparison to a fully untreated ear. For each active agent (including the controls) four guinea pigs were examined.
On day 14 after the acoustic trauma the region of the ear was dissected so that it contained the cochlea. […] In this way the sound induced damage can be localized and quantified. […]

[7] = system: human neuroblastoma cells (SH-SY5Y); assay: Differentiation of human neuroblastoma cells (SH-SY5Y), morphological examination; type: cell-based
Method: The SH-SY5Y cell line was obtained from the German collection of microorganisms and cell cultures—DSMZ, Braunschweig. The cells were cultivated in MEM (Minimum essential medium, Life Technologies) with 10% FCS (fetal calf serum, Biochrom AG) and penicillin/streptomycin (Biochrom AG). For morphological examinations the cells were seeded in a density of 1.5×10^4 cells/cm^2 in 24-well plates (Falcon, cell culture treated) with 1 mL medium. A stock solution of 10 mmol/L of the compound according to the invention 6-fluoro-9-methyl-β-carboline was prepared in 50% ethanol and sterile filtered. Five hours after seeding of the cells the compound according to the invention 6-fluoro-9-methyl-β-carboline was added in the corresponding amount to the medium achieving the desired final concentration. The medium was changed once a week. The cells were regularly microscopically examined. Microscopic images were taken at BZ Keyence 10 with a 10×lens and 4×digital zoom. An automatic contrast enhancement was made with the program BZ Analyzer.

hearing threshold = assay: Acoustically evoked potentials: hearing threshold after acoustic trauma; type: in vivo; conditions: guinea pig, total 0.35 mg per ear
Method: as §8, with “trigger” for “induce”
As measure for evaluation of the hearing threshold of the guinea pig acoustically evoked potentials were measured. Therefore, the electrophysiological activity of the nerve cells in the brain stem that forward impulses from the inner ear was derived after sonication of the ear with 8, 11.3, 16, 22.6 and 32 kHz. The sonification was carried out ascendingly from 0 dB to 90 dB in single steps of 5 dB.
The measurement was carried out 3 days before the acoustic trauma (D-3), 30 minutes after the acoustic trauma (D0) as well as 14 days after the acoustic trauma (D14).
Per animal one ear was not treated and used as intra-individual control (hierin partly abbreviated to “contr.”) and the second ear was treated with 6-fluoro-9-methyl-β-carboline. Therefore, one hour after the acoustic trauma a dose of 0.12 mg 6-fluoro-9-methyl-β-carboline (in a hydrogel as vehicle) was administered intratympanically. 3 days after the acoustic trauma a further intratympanic administration of 0.06 mg 6-fluoro-9-methyl-β-carboline was carried out. The measurements were conducted on four guinea pigs (n=4).
Afterwards, the remaining shift of hearing threshold (also named as permanent shift of hearing threshold) was determined from the measured values before the acoustic trauma (D-3) and after 14 days (D14). From the measured values directly after the acoustic trauma (D0) and after 14 days (D14) the recovery from the trauma (D0-D14) was also determined.
Analogous to the above performed experiments with 6-fluoro-9-methyl-β-carboline, also corresponding experiments with 9-methyl-β-carboline were performed. The experimental procedure was nearly identical, wherein of course 9-methyl-β-carboline instead of 6-fluoro-9-methyl-β-carboline was used. The total dose of 9-methyl-β-carboline was here 0.2 mg and 0.35 mg per ear, respectively.

| SMILES | elimination half time [1] | Lif expression relative to expression induced by 9MβC ([2]; 2-day exposition) | Lif expression relative to expression induced by 9MβC ([2]; 7-day exposition) | Lif expression relative to expression induced by 9MβC ([2]; 14-day exposition) | DRD2S expression relative to expression induced by 9MβC ([3]; 2-day exposition) | DRD2S expression relative to expression induced by 9MβC ([3]; 7-day exposition) | DRD2S expression relative to expression induced by 9MβC ([3]; 14-day exposition) | DKK1 expression relative to expression induced by 9MβC ([4]; 2-day exposition) [times] | DKK1 expression relative to expression induced by 9MβC ([4]; 7-day exposition) | DKK1 expression relative to expression induced by 9MβC ([4]; 14-day exposition) [times] | BDNF expression relative to expression induced by 9MβC ([5]; 2-day exposition) | BDNF expression relative to expression induced by 9MβC ([5]; longer expositions (7 and 14 days)) | solubility (physchem) [µg/mL] | acoustic trauma-induced dying of outer hair cells [6] | neurite growth as indication of differentiation ([7]; 50 μM, compared to 30 μM 6-fluoro-9-methyl-β-carboline) | concentration at which a comparable differentiation of the tested cells is observed ([7]; SH-SY5Y, 15 days incubation) | improvement of the recovery of hearing threshold (D1-D14) vs untreated control (hearing threshold) |
| --- | --- | --- | --- | --- | --- | --- | --- | --- | --- | --- | --- | --- | --- | --- | --- | --- | --- |
| Cn1c2cnccc2c2ccc(F)cc21 [7F9MβC, 7-fluoro-9-methyl-β-carboline] | approximately 5.0 h | approximately three times higher | weaker | comparable | twice as high | comparable | slightly weaker | 1.4 | comparable | 2.2 | approximately three times higher | comparable |  |  |  |  |  |
| Cn1c2ccccc2c2ccncc21 [9MβC, 9-methyl-β-carboline] | approximately 3.4 h |  |  |  |  |  |  |  |  |  |  |  | 168 (≈ 924 µM) | could counteract the dying of outer hair cells | too low neurite growth | approximately 70 μM | about 10 dB |
